The subject of one assay is MGC-803 cells. In words: MTT tumor cell growth inhibition, MGC-803. Format: cell-based. The note with it: Homo sapiens, 48 h, read-out: Tumors growth-inhibitory activity (IC50) MGC-803. Here is the method: (§1) Using MTT method to determine the growth inhibition activity of the matrine compounds on Lovo, MGC-803, Mia-paca2, HpeG-2, A549, k562, and Panc-1 cells in vitro. Logarithmic growth phase of Lovo, MGC-803, Mia-paca2, HpeG-2, A549, k562, Panc-1 cells were inoculated into 96-well plates (purchased from Institute of Biochemical Cells, Chinese Academy of Sciences, and cultured according to conventional tumor cell culture methods) at a density of 4×10^4/mL and 180 μL/well; after the cells adhered to the wall, 20 μL of drug solution was added to each well and matined the final drug concentrations were 0.1 μM, 1 μM, 10 μM, 50 μM, 100 μM respectively. After 48 h, 5 mg/mL MTT solution was added (20 μL/well) and maintained in a CO2 incubator for 3-4 h. After that, discarding the supernatant carefully, and DMSO was added (200 μL/well) when the residual liquid was air-dried, and shook for 0.5-1 h until the residual crystals was dissolved. The absorbance OD was measured at 492 nm by a microplate reader. GraphPad Prism 5 software was used to calculate the IC50 value.

The test system of a further assay is Mia-paca2 cells. Description: MTT tumor cell growth inhibition, Mia-paca2. Format: cell-based. The note with it: Homo sapiens, MIA PaCa-2, 48 h, read-out: Tumors growth-inhibitory activity (IC50) Mia-paca2. The procedure:
as §1

The test system of assay [1] is Panc-1 cells. In words: Anti-tumor activity of NK cells activated by compounds, Panc-1 (CFSE/PI flow cytometry). Particulars: Homo sapiens, tumor cells treated with 20 μM compound 48 h, then mixed with NK cells 5:1 for 4 hours, CFSE+PI+ tumor cells, read-out: Panc-1 inhibition rate (%). The class given is cell-based. The procedure:
(§2) Logarithmic growth phase of Lovo, HpeG-2, A549, k562, Panc-1 cells were collected and seeded in a 6-well plate at a density of 5×10^5/mL and 2 mL/well separately. The experimental group was treated with 20 μM final drug concentration of GJDx compounds, and the control group was treated with an equal volume of RPMI1640 medium. The groups were cultured at 37° C., saturated humidity, 5% CO2 for 48 h. After that, the cells of each group were collected, centrifuged and the supernatant was removed and resuspended in PBS at a density of 1×10^6/mL. Then 2 μL of CFSE stock solution (final concentration was 10 μM) was added into the cell suspension per 1 mL and cultured at 37° C. with 5% CO2 for 30 min, and then added 5-10 times of the volume of 4° C. pre-chilled RPM 1640 complete medium, and incubated on ice for 5 minutes, discarded the supernatant by centrifugation at 4° C., and wash the cells with fresh medium for 3 times. After that, mixing the labeled tumor cells and NK cells (the NK cell culture medium was α-MEM contained 1.5 g/L sodium bicarbonate, 12.5% fetal bovine serum, and 12.5% horse serum) according to the ratio of 5:1, the mixture cells was collected and washed with flow buffer twice after incubated for 4 hours, then 50 μg/mL PI was added, and incubated at room temperature for 15 minutes in the dark, and finally testing the percentage of CFSE^+PI^+ tumor cells on the flow cytometer.

Assay [2] relates to Lovo cells. In words: MTT tumor cell growth inhibition, Lovo. Format: cell-based. Particulars: Homo sapiens, 48 h, read-out: Tumors growth-inhibitory activity (IC50) Lovo. The procedure:
as §1

Assay [3] relates to A549 cells. Description: MTT tumor cell growth inhibition, A549. Format: cell-based. The note with it: Homo sapiens, 48 h, read-out: Tumors growth-inhibitory activity (IC50) A549. Here is the method: as §1
The test system of the next assay is TNF-α. Description: TNF-α activity inhibiting assay (LPS-stimulated peripheral blood, ELISA). The class given is cell-based, human. Particulars: Homo sapiens, compound 20 μM, LPS 10 ng/mL, 6 hours, diluted peripheral blood of healthy volunteers, read-out: TNF-α inhibition rate (%). Here is the method:
Methods: Peripheral blood from healthy volunteers was collected with EDTA anticoagulant tubes. After being diluted 5-fold with 1640 medium (Gibco, USA), the blood was added to 96-well cell culture plates (Costar, USA) and then treated with 10 μL solution of the compound of general formula (I) of the present invention in DMSO (Sigma, USA), the final concentration of the compound was 20 μM with the final concentration of DMSO was 0.2%. After incubation for 60 minutes in an incubator at 37° C. under 5% CO2, 10 μL LPS (Sigma, USA) was added to the reaction system, and the final concentration was 10 ng/mL. After further culturing for 6 hours in the incubator at 37° C. under 5% CO2, the supernatant was collected. The content of TNF-α was determined by ELISA (BD Biosciences, USA). Absorbance was detected at OD450 nm with a microplate reader, with OD 650 nm as reference. The control, a solution containing 0.2% DMSO medium, was as 0% inhibition. Raw data and standard curves were recorded. The four-parameter drug inhibition curve was plotted by XL-fit software and the inhibition rate of each compound was calculated.
Background: In an ELISA, binding on a coated surface is turned into a signal by an enzyme label.

In assay [4] the test system is k562 cells. In words: Anti-tumor activity of NK cells activated by compounds, k562 (CFSE/PI flow cytometry). The note with it: Homo sapiens, tumor cells treated with 20 μM compound 48 h, then mixed with NK cells 5:1 for 4 hours, CFSE+PI+ tumor cells, read-out: k562 inhibition rate (%). The class given is cell-based. The procedure: as §2
(In flow cytometry, cells or beads pass a laser one at a time.)

In assay [5] the test system is k562 cells. Description: MTT tumor cell growth inhibition, k562. Format: cell-based. The note with it: Homo sapiens, 48 h, read-out: Tumors growth-inhibitory activity (IC50) k562. Here is the method:
as §1

Assay [6] concerns A549 cells. Description: Anti-tumor activity of NK cells activated by compounds, A549 (CFSE/PI flow cytometry). Particulars: Homo sapiens, tumor cells treated with 20 μM compound 48 h, then mixed with NK cells 5:1 for 4 hours, CFSE+PI+ tumor cells, read-out: A549 inhibition rate (%). The class given is cell-based. The procedure:
as §2

Assay [7] relates to HpeG-2 cells. Description: Anti-tumor activity of NK cells activated by compounds, HpeG-2 (CFSE/PI flow cytometry). Format: cell-based. The note with it: tumor cells treated with 20 μM compound 48 h, then mixed with NK cells 5:1 for 4 hours; CFSE+PI+ tumor cells; read-out: HpeG-2 inhibition rate (%). The procedure:
as §2

Assay [8] relates to Panc-1 cells. In words: MTT tumor cell growth inhibition, Panc-1. The note with it: Homo sapiens, 48 h, read-out: Tumors growth-inhibitory activity (IC50) Panc-1. The class given is cell-based. The procedure:
as §1

In assay [9] the test system is HpeG-2 cells. In words: MTT tumor cell growth inhibition, HpeG-2. Format: cell-based. Particulars: 48 h, read-out: Tumors growth-inhibitory activity (IC50) HpeG-2. Here is the method: as §1
Assay [10] deals with Lovo cells. Description: Anti-tumor activity of NK cells activated by compounds, Lovo (CFSE/PI flow cytometry). Particulars: Homo sapiens, tumor cells treated with 20 μM compound 48 h, then mixed with NK cells 5:1 for 4 hours, CFSE+PI+ tumor cells, read-out: Lovo inhibition rate (%). Format: cell-based. The procedure: as §2

A value given as a limit tells only on which side of the number the result lay.

As a reminder, the IC50 is the concentration that inhibits the measured activity by half. For orientation: inhibition means the percentage by which the read-out fell short of the control. Take `O=C1c2cccc(C(F)(F)F)c2C(=O)N1C1CC[C@@H]2[C@H]3CCCN4CCC[C@@H](CN2C1=O)[C@@H]34` (stereo partly shown) [GJD 07]: the IC50 in the assay with MGC-803 cells is 50 to 100 µM; in the assay on Mia-paca2 cells, 50 to 100 µM; in the assay with Lovo cells [2], less than 50 µM; in the assay with A549 cells [3], more than 100 µM; in the assay on k562 cells [5], 50 to 100 µM; with Panc-1 cells [8], 50 to 100 µM. For the same compound, the IC50 with HpeG-2 cells [9] lay within 50 to 100 µM. For the same compound, the inhibition at 20 µM in the assay on Panc-1 cells [1] is more than 50%; with TNF-α it was more than 50%; in the assay on k562 cells [4], more than 50%; in the assay with A549 cells [6], less than 50%; in the assay with HpeG-2 cells [7], more than 50%; in the assay on Lovo cells [10], more than 50%.

The values are drawn from patent US20210221812A1, “MATRINE a-KETOAMINE COMPOUNDS, PREPARATION METHOD THEREFOR AND USE THEREOF” (SHANGHAI XINGYE PHARMACEUTICAL TECHNOLOGY CO., LTD, priority 2018, published 2021).
